Experimental data: patent US8552002B2 (Novartis AG, priority 2004, dated 2013)

Columns and labels:
Type in all cases: biochemical
KDR = biological target: T1, KDR (Homo sapiens, UniProt P35968); test: Inhibitory activity against KDR (VEGF-R2), in vitro data of Examples 170 and 207; conditions: 10 μM; Examples 1 to 169; read-out: KDR inhibition at 10 μM
T1 construct: expressed in transfected cells; host or cells: CHO cells
In short: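 KDR tyrosine phosphorylation detected by luminescence after overnight 4° C capture of 20 μg lysate protein with PY20:AP antibody. Lysates came from cells given compound for 2 h at 37° C, then final 20 ng/ml VEGF for 5 min; compound-free medium as control.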

FGFR3 (K650E) = biological target: T2, FGFR3 (K650E) (Homo sapiens, UniProt P22607, K650E); test: Recombinant GST-FGFR-3-K650E tyrosine kinase assay (33P into poly(Glu,Tyr)); conditions: 10 μM; Examples 1 to 169; read-out: FGFR3 (K650E) inhibition at 10 μM
T2 construct: amino acids 411-806 of the cytoplasmic domain of human FGFR-3, N-terminally fused to GST; made in house; host or cells: Sf9 insect cells (baculovirus)
T2 sequence (P22607 411-806 K650E): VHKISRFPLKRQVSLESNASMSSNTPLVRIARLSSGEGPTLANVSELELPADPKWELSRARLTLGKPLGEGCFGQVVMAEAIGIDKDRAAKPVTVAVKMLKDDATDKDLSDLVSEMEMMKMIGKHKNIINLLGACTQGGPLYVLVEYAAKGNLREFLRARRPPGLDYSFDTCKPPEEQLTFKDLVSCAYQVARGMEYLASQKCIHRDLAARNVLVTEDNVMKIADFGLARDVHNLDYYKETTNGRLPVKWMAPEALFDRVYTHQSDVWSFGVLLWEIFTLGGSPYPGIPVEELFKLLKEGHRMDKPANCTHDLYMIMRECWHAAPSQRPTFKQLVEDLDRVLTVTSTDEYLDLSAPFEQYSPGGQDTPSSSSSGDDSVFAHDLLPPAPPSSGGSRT

Tek = biological target: T3, Tek (Homo sapiens, UniProt Q02763); test: Recombinant GST-Tek (Tie-2) tyrosine kinase assay (33P into poly(Glu,Tyr)); conditions: Examples 1 to 169
T3 construct: amino acids 773-1124 of the cytoplasmic kinase domain of human Tek, N-terminally fused to GST; made in house; host or cells: Sf9 insect cells (baculovirus)
T3 sequence (Q02763 773-1124): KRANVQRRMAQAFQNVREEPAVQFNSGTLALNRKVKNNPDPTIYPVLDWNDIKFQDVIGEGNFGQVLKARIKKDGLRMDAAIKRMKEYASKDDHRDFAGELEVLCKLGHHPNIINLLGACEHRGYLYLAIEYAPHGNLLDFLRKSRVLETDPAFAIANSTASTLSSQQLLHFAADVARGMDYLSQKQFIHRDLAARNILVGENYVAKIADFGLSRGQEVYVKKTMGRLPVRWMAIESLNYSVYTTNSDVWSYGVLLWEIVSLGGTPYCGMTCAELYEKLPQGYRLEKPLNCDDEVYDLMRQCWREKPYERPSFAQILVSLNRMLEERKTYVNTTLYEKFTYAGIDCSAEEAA
In short: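 Read-out is filter-bound 33P in poly(Glu,Tyr) 4:1 (10 μg/mL) after 30 min at ambient temperature with 4.0 μM ATP. Enzyme: 150 ng human GST-Tek (aa 773-1124) from insect cells, in Tris pH 7.5 with Mn2+/Mg2+ and vanadate. IC50 fitted linearly over four concentrations, usually 0.01-10 μM.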

T1 sequence (P35968 20-1356): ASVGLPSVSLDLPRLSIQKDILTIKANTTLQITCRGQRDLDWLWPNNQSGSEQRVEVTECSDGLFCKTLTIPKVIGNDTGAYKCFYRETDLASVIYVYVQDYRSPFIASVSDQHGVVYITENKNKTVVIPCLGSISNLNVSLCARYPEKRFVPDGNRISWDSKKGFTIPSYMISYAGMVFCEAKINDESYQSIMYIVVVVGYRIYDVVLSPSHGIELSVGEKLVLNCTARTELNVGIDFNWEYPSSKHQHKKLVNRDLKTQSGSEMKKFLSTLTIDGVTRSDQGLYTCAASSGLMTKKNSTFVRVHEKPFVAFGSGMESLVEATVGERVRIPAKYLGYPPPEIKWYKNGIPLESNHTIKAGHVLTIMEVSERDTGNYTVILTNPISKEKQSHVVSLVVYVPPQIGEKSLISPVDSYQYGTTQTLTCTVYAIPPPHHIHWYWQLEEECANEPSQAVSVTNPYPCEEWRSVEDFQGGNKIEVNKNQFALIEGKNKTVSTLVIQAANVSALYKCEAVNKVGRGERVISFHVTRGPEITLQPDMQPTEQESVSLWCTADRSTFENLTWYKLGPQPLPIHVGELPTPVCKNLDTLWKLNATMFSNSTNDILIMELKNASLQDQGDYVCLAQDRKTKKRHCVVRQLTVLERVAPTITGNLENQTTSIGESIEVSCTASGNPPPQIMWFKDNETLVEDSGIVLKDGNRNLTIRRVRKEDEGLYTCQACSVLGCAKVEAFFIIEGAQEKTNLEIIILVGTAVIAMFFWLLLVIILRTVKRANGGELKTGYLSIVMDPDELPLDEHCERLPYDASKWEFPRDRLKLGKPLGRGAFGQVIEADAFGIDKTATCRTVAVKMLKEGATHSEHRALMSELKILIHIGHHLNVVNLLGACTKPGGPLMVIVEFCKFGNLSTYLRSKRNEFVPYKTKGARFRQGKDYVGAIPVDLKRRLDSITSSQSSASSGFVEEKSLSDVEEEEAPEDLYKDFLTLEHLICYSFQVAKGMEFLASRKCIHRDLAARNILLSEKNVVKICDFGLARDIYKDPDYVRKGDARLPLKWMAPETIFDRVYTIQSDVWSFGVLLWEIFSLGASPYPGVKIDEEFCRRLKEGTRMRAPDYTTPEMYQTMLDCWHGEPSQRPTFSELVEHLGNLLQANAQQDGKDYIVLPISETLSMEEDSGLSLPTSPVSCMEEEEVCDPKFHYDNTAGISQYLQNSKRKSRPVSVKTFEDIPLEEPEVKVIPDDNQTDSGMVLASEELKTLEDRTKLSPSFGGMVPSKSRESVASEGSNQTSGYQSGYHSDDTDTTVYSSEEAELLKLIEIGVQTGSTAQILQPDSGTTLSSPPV

Row | Compound | inhibition at 10 µM (KDR) [%] | inhibition at 10 µM (FGFR3 (K650E)) [%] | inhibition at 10 µM (Tek) [%]
1 | CCN(CC)CCCOc1ccc(Nc2cc(NC(=O)Nc3c(Cl)cccc3Cl)ncn2)cc1 [Example 103, 1-(2,6-Dichloro-phenyl)-3-{6-[4-(3-diethylamino-propoxy)-phenylamino]-pyrimidin-4-yl}-urea] | 67 to 100 | 27 to 100 | 12 to 100
2 | COc1ccc(C)c(NC(=O)Nc2cc(Nc3ccc(N4CCN(C)CC4)cc3)ncn2)c1 [Example 26, 1-(5-Methoxy-2-methyl-phenyl)-3-{6-[4-(4-methyl-piperazin-1-yl)-phenyl-amino]-pyrimidin-4-yl}-urea] | 67 to 100 | 27 to 100 | 12 to 100
3 | COc1ccc(Cl)c(NC(=O)Nc2cc(Nc3cccc(N4CCN(C)CC4)c3)ncn2)c1 [Example 29, 1-(2-Chloro-5-methoxy-phenyl)-3-{6-[3-(4-methyl-piperazin-1-yl)-phenyl-amino]-pyrimidin-4-yl}-urea] | 67 to 100 | 27 to 100 | 12 to 100
4 | COc1cc(OC)c(Cl)c(NC(=O)N(C)c2cc(Nc3ccc(C)nc3C)ncn2)c1Cl [Example 153, 3-(2,6-Dichloro-3,5-dimethoxy-phenyl)-1-[6-(2,6-dimethyl-pyridin-3-ylamino)-pyrimidin-4-yl]-1-methyl-urea] | 67 to 100 | 27 to 100 | 12 to 100
5 | O=C(Nc1ccc(Cl)cc1)Nc1cc(Nc2cccc(Cl)c2)ncn1 [Example 138, 1-(4-Chloro-phenyl)-3-[6-(3-chloro-phenylamino)-pyrimidin-4-yl]-urea] | 67 to 100 | 27 to 100 | 12 to 100
6 | CN1CCN(c2cccc(Nc3cc(NC(=O)Nc4cc(C(F)(F)F)cc(C(F)(F)F)c4)ncn3)c2)CC1 [Example 21, 1-(3,5-Bis-trifluoromethyl-phenyl)-3-{6-[3-(4-methyl-piperazin-1-yl)-phenylamino]-pyrimidin-4-yl}-urea] | 67 to 100 | 27 to 100 | 12 to 100
7 | COc1cc(NC(=O)N(C)c2cc(Nc3cccc(N4CCN(C)CC4)c3)ncn2)c(Cl)c(OC)c1 [Example 51, 3-(2-Chloro-3,5-dimethoxy-phenyl)-1-methyl-1-{6-[3-(4-methyl-piperazin-1-yl)-phenylamino]-pyrimidin-4-yl}-urea] | 67 to 100 | 27 to 100 | 12 to 100
8 | COc1cc(OC)c(Cl)c(NC(=O)Nc2cc(Nc3ccc(OCCN4CCN(C)CC4)cc3)ncn2)c1Cl [Example 158, 1-(2,6-Dichloro-3,5-dimethoxy-phenyl)-3-(6-{4-[2-(4-methyl-piperazin-1-yl)-ethoxy]-phenylamino}-pyrimidin-4-yl)-urea] | 67 to 100 | 27 to 100 | 12 to 100
9 | O=C(Nc1cc(Nc2cccc(Cl)c2)ncn1)Nc1ccccc1Cl [Example 128, 3-(2-Chloro-phenyl)-1-[6-(3-chloro-phenylamino)-pyrimidin-4-yl]-urea] | 67 to 100 | 27 to 100 | 12 to 100
10 | CN1CCN(c2ccc(Nc3cc(NC(=O)Nc4ccccc4Br)ncn3)cc2)CC1 [Example 94, 1-(2-Bromo-phenyl)-3-{6-[4-(4-methyl-piperazin-1-yl)-phenylamino]-pyrimidin-4-yl}-urea] | 67 to 100 | 27 to 100 | 12 to 100
11 | CCN(CC)c1ccc(Nc2cc(N(C)C(=O)Nc3c(Cl)cccc3Cl)ncn2)cc1 [Example 110, 3-(2,6-Dichloro-phenyl)-1-[6-(4-diethylamino-phenylamino)-pyrimidin-4-yl]-1-methyl-urea] | 67 to 100 | 27 to 100 | 12 to 100
12 | CN(C)c1cccc(Nc2cc(NC(=O)Nc3c(F)cccc3F)ncn2)c1 [Example 106, 1-(2,6-Difluoro-phenyl)-3-[6-(3-dimethylamino-phenylamino)-pyrimidin-4-yl]-urea] | 67 to 100 | 27 to 100 | 12 to 100
13 | O=C(Nc1cc(Nc2ccc(N3CCOCC3)cc2)ncn1)Nc1c(F)cccc1F [Example 109, 1-(2,6-Difluoro-phenyl)-3-[6-(4-morpholin-4-yl-phenylamino)-pyrimidin-4-yl]-urea] | 67 to 100 | 27 to 100 | 12 to 100
14 | COc1ccc(Cl)cc1NC(=O)Nc1cc(Nc2ccc(N3CCN(C)CC3)cc2)ncn1 [Example 78, 1-(5-Chloro-2-methoxy-phenyl)-3-{6-[4-(4-methyl-piperazin-1-yl)-phenylamino]-pyrimidin-4-yl}-urea] | 67 to 100 | 27 to 100 | 12 to 100
15 | COc1ccc(Cl)c(NC(=O)N(C)c2cc(Nc3ccc(C(=O)N4CCN(C)CC4)cc3)ncn2)c1Cl [Example 61, 3-(2,6-Dichloro-3-methoxy-phenyl)-1-methyl-1-{6-[4-(4-methyl-piperazine-1-carbonyl)-phenylamino]-pyrimidin-4-yl}-urea] | 67 to 100 | 27 to 100 | 12 to 100
16 | COc1cc(OC)c(Cl)c(NC(=O)N(C)c2cc(Nc3ccc(C(F)(F)F)nc3)ncn2)c1Cl [Example 154, 3-(2,6-Dichloro-3,5-dimethoxy-phenyl)-1-methyl-1-[6-(6-trifluoromethyl-pyridin-3-ylamino)-pyrimidin-4-yl]-urea] | 67 to 100 | 27 to 100 | 12 to 100
17 | CN(C(=O)Nc1c(Cl)cccc1Cl)c1cc(Nc2cccc(C(F)(F)F)c2)ncn1 [Example 113, 3-(2,6-Dichloro-phenyl)-1-methyl-1-[6-(3-trifluoromethyl-phenylamino)-pyrimidin-4-yl]-urea] | 67 to 100 | 27 to 100 | 12 to 100
18 | CCN1CCN(Cc2ccc(Nc3cc(N(C)C(=O)Nc4c(Cl)c(OC)cc(OC)c4Cl)ncn3)cc2)CC1 [Example 149, 3-(2,6-Dichloro-3,5-dimethoxy-phenyl)-1-{6-[4-(4-ethyl-piperazin-1-ylmethyl)-phenylamino]-pyrimidin-4-yl}-1-methyl-urea] | 67 to 100 | 27 to 100 | 12 to 100
19 | O=C(Nc1cc(Nc2ccc(OCCN3CCOCC3)cc2)ncn1)Nc1ccccc1Br [Example 97, 1-(2-Bromo-phenyl)-3-{6-[4-(2-morpholin-4-yl-ethoxy)-phenylamino]-pyrimidin-4-yl}-urea] | 67 to 100 | 27 to 100 | 12 to 100
20 | CCN(CC)CCOc1ccc(Nc2cc(NC(=O)Nc3ccccc3Cl)ncn2)cc1 [Example 126, 1-(2-Chloro-phenyl)-3-{6-[4-(2-diethylamino-ethoxy)-phenylamino]-pyrimidin-4-yl}-urea] | 67 to 100 | 27 to 100 | 12 to 100
21 | CN(C(=O)Nc1cccc(Cl)c1)c1cc(Nc2ccc(F)cc2)ncn1 [Example 122, 3-(3-Chloro-Phenyl)-1-[6-(4-fluoro-phenylamino)-pyrimidin-4-yl]-1-methyl-urea] | 67 to 100 | 27 to 100 | 12 to 100
22 | COc1cc(NC(=O)Nc2cc(Nc3cccc(N4CCN(C)CC4)c3)ncn2)ccc1F [Example 33, 1-(4-Fluoro-3-methoxy-phenyl)-3-{6-[3-(4-methyl-piperazin-1-yl)-phenyl-amino]-pyrimidin-4-yl}-urea] | 67 to 100 | 27 to 100 | 12 to 100
23 | CCN(CC)CCCOc1ccc(N(C(=O)Nc2ccccc2Cl)c2cc(N)ncn2)cc1 [Example 95, 1-(6-Amino-pyrimidin-4-yl}-3-(2-chloro-phenyl)-1-[4-(3-diethylamino-propoxy)-phenyl]-urea] | 67 to 100 | 27 to 100 | 12 to 100
24 | CCN(CC)CCOc1ccc(Nc2cc(N(C)C(=O)Nc3cc(OC)cc(OC)c3Cl)ncn2)cc1 [Example 53, 3-(2-Chloro-3,5-dimethoxy-Phenyl)-1-{6-[4-(2-diethylamino-ethoxy)-phenylamino]-pyrimidin-4-yl}-1-methyl-urea] | 67 to 100 | 27 to 100 | 12 to 100
25 | CCN1CCN(c2ccc(Nc3cc(N(C)C(=O)Nc4c(Cl)c(OC)cc(OC)c4Cl)ncn3)cc2)CC1 [Example 145, 3-(2,6-Dichloro-3,5-dimethoxy-phenyl)-1-{6-[4-(4-ethyl-piperazin-1-yl)-phenylamino]-pyrimidin-4-yl}-1-methyl-urea] | 67 to 100 | 27 to 100 | 12 to 100
26 | COc1cc(NC(=O)N(C)c2cc(Nc3ccccc3)ncn2)c(Cl)c(OC)c1 [Example 49, 3-(2-Chloro-3,5-dimethoxy-phenyl)-1-methyl-1-(6-phenylamino-pyrimidin-4-yl)-urea] | 67 to 100 | 27 to 100 | 12 to 100
27 | COc1ccc(NC(=O)N(C)c2cc(Nc3ccc(F)cc3)ncn2)cc1 [Example 116, 1-[6-(4-Fluoro-Phenylamino)-pyrimidin-4-yl]-3-(4-methoxy-phenyl)-1-methyl-urea] | 67 to 100 | 27 to 100 | 12 to 100
